In patent publication US20060052307A1, “Bone growth factor” (priority 2002, published 2006):
Where “and” joins values, the source holds several entries; their conditions need not be identical. Identical values can stand only once. Bridges are numbered along the chain shown (N, C = ends). Roman numbers before positions name the chains, in order. The star is where a group is joined. Cam = NC(=O)C*

Key:
Sprague-Dawley rats [1] = assay: Bone mineral apposition rate after a single subcutaneous peptide injection, double tetracycline labelling, distal metaphysis of the right femur; assay type: in vivo, rat; set-up: Bone mineral apposition rate, group mean (Table 2): unit not given here; settings: male rats; for BONE MINERAL APPOSITION, individual rats (Table 6) / Effect on bone mineral apposition / BONE MINERAL APPOSITION, MEAN (Table 6): Example 3, 300 nmoles/kg S.C.; for BONE MINERAL APPOSITION, MEAN (Table 6): control 1.62; for Effect on bone mineral apposition rate versus control / Bone mineral apposition rate, individual rats (Table 2) / Bone mineral apposition rate, group mean (Table 2): Example 1; for Bone mineral apposition rate, individual rats (Table 2) / Bone mineral apposition rate, group mean (Table 2): 300 nmoles/kg s.c. single dose; for Bone mineral apposition rate, group mean (Table 2): N=4, control 1.48
Experimental: Test peptides were administered by subcutaneous injection to the right gluteal region of the rats after being dissolved in a carrier buffer comprising PBS containing 0.1% heat inactivated BSA at pH 7.4. The dose was 300 nmoles/kg bodyweight in an injection volume of 400 μl.
Male Sprague-Dawley rats from Charles River Laboratory were used. The weight of the animals was approximately 350 g. They were housed in pairs in standard shoebox cages. Purina rat chow and tap water were provided ad libitum. The light/dark cycle was 12 hours, the temperature 22° C. and the humidity 50%. The animals were acclimatized for one week before initiating dosing.
Bone mineral apposition rate as measured for the distal metaphysis of the right femur was the parameter for the assessment of activity. Two doses of tetracycline hydrochloride (Sigma), 24 mg/kg body weight were administered I.M. in an injection volume of 800 μl to the left gluteus maximus muscle. The first dose was given immediately following the administration of the peptide, and the second dose 48 hours later. 24 hours after the second dose of tetracycline, the animals were sacrificed by carbon dioxide narcosis. The right femur was dissected clear of muscles and a 0.5 cm cross section of the bone 1 mm below the upper epiphyseal cartilage was taken and processed undecalcified for histological preparation of […]. Bone mineral apposition rate was measured in 15 randomly selected bone formation sites with two tetracycline labels in the trabecular bone. The arithmetic mean of these 15 sites was taken as the mean bone mineral apposition for the respective animals.
The dose of peptide was dissolved in 400 μl of buffer comprising of PBS with 0.1% of heat inactivated BSA and the method for the determination of bone mineral apposition rate was as described before.
Experimental design: Animals were grouped in four. All groups received a single dose of SEQ ID NO:2 (300 nmoles/kg) subcutaneously injected to the right gluteal region at Day 0 at approximately the same time within 15 minutes. Two doses tetracycline labeling at intervals of 48 hours was used to measure bone mineral apposition rate. The control group received buffer injection only.

Sprague-Dawley rats [2] = assay: as above; assay type: in vivo, rat; set-up: unit not given here; settings: Example 2, 300 nmoles/kg s.c., N=3, control 1.18
[3] = Stability of peptides in solution, intact peptide remaining by HPLC peak height; assay type: physicochemical; settings: pH 7.4
Experimental: Solvents for test peptides: Milli-Q water filtered through […] filter; resistance—18.2 Mega Ohms
Phosphate buffered saline: pH […] from Gibco (Cat. #100113-023)
20. mM sodium acetate buffer: pH 4.5 prepared with Milli-Q water and filtered through […] filter.
Peptides: The test peptides included those of SEQ ID NOs: 2, 3, 4 & 7.
Peptide preparation: Test peptides were dissolved in either PBS or sodium acetate buffer at a concentration of 0.2 mg per ml. The purity of the test peptides was greater than 95%.
Method for testing stability: Stability of the peptides was examined at pH7.4 and at room temperature, 4° C. and 37° C. The amount of intact peptide remaining over time was compared with the initial intact amount. The quantification of the amount of peptide was based on peak height in an HPLC profile.

Row | Substance | BONE MINERAL APPOSITION, individual rats (Table 6) (Sprague-Dawley rats [1]) | Effect on bone mineral apposition (Sprague-Dawley rats [1]) | BONE MINERAL APPOSITION, MEAN (Table 6) (Sprague-Dawley rats [1]) | Effect on bone mineral apposition rate versus control (Sprague-Dawley rats [1]; 300 nmoles/kg s.c.) | Bone mineral apposition rate, individual rats (Table 2) (Sprague-Dawley rats [1]) | Bone mineral apposition rate, group mean (Table 2) (Sprague-Dawley rats [1]) | further results
1 | SEQ ID NO: 8, dimer: dimer form of the peptide with SEQ ID NO: 8 (chain 1 Ac-RTNEHTADCK-NH2; chain 2 Ac-RTNEHTADCK-NH2; not fully specified (bridges); cysteine pairing not given here; also: dimer, linkage not given here) | 1.39 µm/d and 1.43 µm/d and 1.42 µm/d and 1.36 µm/d | significantly inhibit | 1.4 µm/d |  |  |  | 
2 | SEQ ID NO: 5: peptide of SEQ ID NO:7 with a carboxyamidomethyl residue modifying cysteine at the 9-position of the decamer (Ac-RTQEHTAEC(Cam)K-NH2) |  |  |  |  |  |  | Bone mineral apposition rate compared with the prior art peptide of SEQ ID NO: 7 (FIG. 5) (Sprague-Dawley rats [1]; Example 4, 300 nmoles/kg s.c.): significantly greater
3 | K-T-Q-E-F-T-A-E-M-K [SEQ ID NO: 1] |  |  |  |  |  |  | Bone Mineral Apposition Rate, Mean rate (Table 4) (Sprague-Dawley rats [2]): 1.61
4 | Ac-R T N E H T A D C K —NH2 (Ac-RTNEHTADCK-NH2) [SEQ ID NO: 8, monomer] | 2.27 µm/d and 1.78 µm/d and 2.15 µm/d and 2.01 µm/d | significantly stimulated | 2.05 µm/d |  |  |  | 
5 | Ac-R T Q E H T A E C K —NH2 (Ac-RTQEHTAECK-NH2) [SEQ ID NO: 7, monomer, prior art peptide] | 1.91 µm/d and 1.73 µm/d (2×) and 2.06 µm/d | significantly stimulated | 1.86 µm/d | significantly higher than the control group | 2.41 µm/d and 2.54 µm/d and 2.25 µm/d and 2.24 µm/d | 2.36 | Degradation in solution ([3]; 4° C. and room temperature, 6 months): totally degraded; Degradation in solution ([3]; 4° C. and room temperature, over three months): substantial degradation; Degradation in solution ([3]; 37° C., over 3 weeks): substantial degradation
6 | SEQ ID NO: 7, dimer: dimerized form of the peptide having SEQ ID NO:7, disulfide bonding between the cysteine residues (chain 1 Ac-RTQEHTAECK-NH2; chain 2 Ac-RTQEHTAECK-NH2; disulfide I:9-II:9; also: disulfide-linked dimer) | 1.29 µm/d and 1.51 µm/d (2×) | significantly inhibit | 1.43 µm/d | inhibitory effect | 1.28 µm/d and 1.41 µm/d and 1.5 µm/d and 1.38 µm/d | 1.39 | 
